From ChEMBL document CHEMBL1201862, “PubChem BioAssay data set” (2004) come the findings set out here.

The term AC50 denotes the concentration at which the activity in the assay is half-maximal. The EC50 is the concentration at which the effect is half-maximal.

Activity calls are given as the source filed them. Bounds are passed on as bounds.

A short description of assay [1]: Fluorescence-based cell-based high throughput dose response assay for inhibitors of the interaction of nucleotide-binding oligomerization domain containing 2 (NOD2) and the receptor-interacting serine-threonine kinase 2 (RIPK2). The format is functional. The conditions noted are these: Homo sapiens.
The target of assay [2] is T1, Mitochondrial peptide methionine sulfoxide reductase (Bos taurus, UniProt P54149).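 Further: absorbance read-out, biochemical high-throughput dose-response screen for MsrA inhibitors, confirmatory; recombinant bovine MsrA coupled to E. coli TrxB with NADPH and selenocystamine; potency is for inhibitors of MsrA activity on DMSO substrate.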
T1 sequence (P54149 whole entry): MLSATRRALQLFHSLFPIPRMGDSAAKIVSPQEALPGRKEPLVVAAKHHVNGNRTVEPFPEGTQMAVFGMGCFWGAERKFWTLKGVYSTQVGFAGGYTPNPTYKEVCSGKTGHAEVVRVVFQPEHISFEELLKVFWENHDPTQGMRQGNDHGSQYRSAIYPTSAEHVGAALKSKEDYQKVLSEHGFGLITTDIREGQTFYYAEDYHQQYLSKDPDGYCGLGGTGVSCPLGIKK
In kind it is functional.

In assay [3] the target is Heat shock protein HSP 90-alpha (Homo sapiens, UniProt P07900). The format is functional, organism-based.
In assay [4] the target is Hepatocyte nuclear factor 4-alpha (Homo sapiens, UniProt P41235). In kind it is functional, cell-based.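 Further: biochemical luminescence-based dose-response counterscreen measuring inhibition of HNF4 dimerization, run alongside a screen for blockers of ABHD5–perilipin-5 interaction; split luciferase complementation of HNF4 fusion proteins in cell lysate measuring dimerization.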
Chain of Hepatocyte nuclear factor 4-alpha (P41235 whole entry, the tested form may be a part): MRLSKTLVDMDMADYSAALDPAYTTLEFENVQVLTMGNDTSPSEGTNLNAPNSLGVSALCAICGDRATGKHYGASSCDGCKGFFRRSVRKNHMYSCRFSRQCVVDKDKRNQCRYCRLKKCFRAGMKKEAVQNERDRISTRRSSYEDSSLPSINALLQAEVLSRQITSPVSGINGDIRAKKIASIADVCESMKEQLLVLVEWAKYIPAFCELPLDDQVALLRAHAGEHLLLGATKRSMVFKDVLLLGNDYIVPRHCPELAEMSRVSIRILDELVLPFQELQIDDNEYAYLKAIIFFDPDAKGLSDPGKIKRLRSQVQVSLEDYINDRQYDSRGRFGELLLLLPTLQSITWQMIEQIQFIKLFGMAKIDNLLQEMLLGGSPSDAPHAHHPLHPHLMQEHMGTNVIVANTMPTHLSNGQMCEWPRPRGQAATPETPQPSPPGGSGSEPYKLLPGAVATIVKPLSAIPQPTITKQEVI
Assay [5] has as its target Nuclear receptor subfamily 5 group A member 2 (Homo sapiens, UniProt O00482). The format is functional, cell-based.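 Further: HEK293T cells transfected with LRH-1 and a StAR promoter luciferase reporter; potency for inhibitors that lower LRH-1 driven reporter light.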
A further assay addresses Steroidogenic factor 1 (Homo sapiens, UniProt Q13285). Kind of assay: Counterscreen for inverse agonists of the liver receptor homolog-1 (LRH-1; NR5A2): Luminescence-based cell-based high throughput dose response assay to identify inverse agonists of the Steroidogenic Factor 1 Nuclear Receptor (SF1; NR5A1). In kind it is functional. On the technique in general: Counterscreens check selectivity or assay interference.

A short description of assay [6]: nonselective StAR promoter luciferase inhibitors – cell-based, luminescence, luciferase reporter, counter-screen for LRH-1 inverse agonist project, dose response (AID 651969). In kind it is functional.
Assay [7] has as its target T2, Sentrin-specific protease 1 (Homo sapiens, UniProt Q9P0U3). Kind of assay: SENP1 catalytic domain blockers, concentration series – biochemical, kinetic FRET, dose response (AID 651697). In kind it is functional. The conditions noted are these: read-out: IC50_Mean.
Assay [8] deals with T2, Sentrin-specific protease 1. Kind of assay: Dose response confirmation of small molecule inhibitors of the catalytic domain of the SUMO protease, SENP1 in a FRET assay. The format is functional. The conditions noted are these: read-out: IC50_Mean.
The nature of assay [9]: Trypanosoma cruzi growth suppression in host cells – NIH3T3 host cells, beta-gal luminescence, confirmation (AID 2044).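 Further: intracellular parasites grown in NIH/3T3 mouse fibroblasts as host cells; luminescent beta-galactosidase reporter signal from transgenic T. cruzi replicating inside host cells; inhibitors lower the luminescence signal.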 In kind it is functional, cell-based.
A short description of assay [10]: Luminescence Cell-Based Dose Confirmation HTS to Identify Inhibitors of Polyadenylation. In kind it is functional.
Assay [11] in a line: NIH3T3 cell viability loss – ATP luminescence, mouse fibroblasts, counter-screen, dose response (AID 2010).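 Further: cells exposed to compound for about 90 hours before reading.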 The format is functional, cell-based.
The target in assay [12] is DNA repair and recombination protein RAD54-like (Homo sapiens, UniProt Q92698). Kind of assay: RAD54 Holliday junction migration blockers – biochemical, fluorescence, cherry-picked samples, dose series, confirmation (AID 651657). In kind it is functional.
Chain of DNA repair and recombination protein RAD54-like (Q92698 whole entry): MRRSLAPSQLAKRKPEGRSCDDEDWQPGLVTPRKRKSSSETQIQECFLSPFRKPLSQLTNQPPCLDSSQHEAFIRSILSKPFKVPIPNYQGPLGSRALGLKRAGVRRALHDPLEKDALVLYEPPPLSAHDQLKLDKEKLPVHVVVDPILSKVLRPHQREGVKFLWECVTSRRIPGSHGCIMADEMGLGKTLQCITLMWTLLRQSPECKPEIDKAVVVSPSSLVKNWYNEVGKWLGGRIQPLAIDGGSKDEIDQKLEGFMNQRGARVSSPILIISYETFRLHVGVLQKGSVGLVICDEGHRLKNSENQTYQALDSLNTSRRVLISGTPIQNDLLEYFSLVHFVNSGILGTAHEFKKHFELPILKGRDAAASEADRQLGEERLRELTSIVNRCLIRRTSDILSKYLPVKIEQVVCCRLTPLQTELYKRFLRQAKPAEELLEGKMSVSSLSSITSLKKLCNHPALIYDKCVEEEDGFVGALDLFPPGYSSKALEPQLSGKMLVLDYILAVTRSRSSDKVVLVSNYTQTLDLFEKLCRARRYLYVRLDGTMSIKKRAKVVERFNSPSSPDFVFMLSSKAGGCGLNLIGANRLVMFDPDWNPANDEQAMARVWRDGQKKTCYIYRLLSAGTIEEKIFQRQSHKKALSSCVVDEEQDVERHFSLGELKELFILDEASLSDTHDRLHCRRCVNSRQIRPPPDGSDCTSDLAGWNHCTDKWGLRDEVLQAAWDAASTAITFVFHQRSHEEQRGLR
Assay [13] concerns the target T3, DNA repair protein RAD52 homolog (Homo sapiens, UniProt P43351).
T3 sequence (P43351 whole entry): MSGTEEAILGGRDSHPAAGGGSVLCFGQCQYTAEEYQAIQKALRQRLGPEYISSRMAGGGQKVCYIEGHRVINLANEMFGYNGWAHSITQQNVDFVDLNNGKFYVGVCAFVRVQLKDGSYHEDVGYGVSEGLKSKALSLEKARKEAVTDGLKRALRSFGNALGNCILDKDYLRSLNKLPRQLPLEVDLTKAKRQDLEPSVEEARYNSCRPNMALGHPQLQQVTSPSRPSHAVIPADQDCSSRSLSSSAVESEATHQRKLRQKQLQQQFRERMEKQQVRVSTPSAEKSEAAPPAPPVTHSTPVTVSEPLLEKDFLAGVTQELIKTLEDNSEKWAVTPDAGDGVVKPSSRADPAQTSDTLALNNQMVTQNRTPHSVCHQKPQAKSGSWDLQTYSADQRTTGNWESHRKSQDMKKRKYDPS
The format is functional, biochemical.

The target of assay [14] is Palmitoyl-protein thioesterase ABHD10, mitochondrial (Mus musculus, UniProt Q6PE15). The assay can be described thus: Late stage assay provider results from the probe development effort to identify inhibitors of PME-1: fluorescence-based dose response biochemical gel-based competitive Activity-Based Protein Profiling (ABPP) inhibition of ABHD10 Set 2. The format is functional.
Chain of Palmitoyl-protein thioesterase ABHD10, mitochondrial (Q6PE15 whole entry): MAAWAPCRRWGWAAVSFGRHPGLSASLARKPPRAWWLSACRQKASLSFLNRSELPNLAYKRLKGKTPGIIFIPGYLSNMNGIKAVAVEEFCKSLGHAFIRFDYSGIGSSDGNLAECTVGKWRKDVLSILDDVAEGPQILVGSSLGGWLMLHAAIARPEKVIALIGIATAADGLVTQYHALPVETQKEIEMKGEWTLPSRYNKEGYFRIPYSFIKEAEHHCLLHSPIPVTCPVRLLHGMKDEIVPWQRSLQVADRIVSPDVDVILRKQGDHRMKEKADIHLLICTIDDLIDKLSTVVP

Assay [15] has as its system Streptococcus sp. 'group A'. The assay can be described thus: Streptococcus pyogenes SK(-)GAS viability under kanamycin – luminescence, BacTiterGlo, confirmation, counter-screen for streptokinase expression inhibitor project, dose response (AID 1900). In kind it is functional, organism-based.
A further assay deals with Streptococcus. Kind of assay: GAS UMAA2166 growth inhibition – luminescence, BacTiterGlo, counter-screen for streptokinase expression inhibitor project, dose response (AID 1915).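 Further: potency for reduction of bacterial viability or growth.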 In kind it is functional, organism-based.
The target in assay [16] is T4, Replicative DNA helicase DnaB (Mycobacterium tuberculosis, UniProt P9WMR3).
T4 sequence (P9WMR3 whole entry): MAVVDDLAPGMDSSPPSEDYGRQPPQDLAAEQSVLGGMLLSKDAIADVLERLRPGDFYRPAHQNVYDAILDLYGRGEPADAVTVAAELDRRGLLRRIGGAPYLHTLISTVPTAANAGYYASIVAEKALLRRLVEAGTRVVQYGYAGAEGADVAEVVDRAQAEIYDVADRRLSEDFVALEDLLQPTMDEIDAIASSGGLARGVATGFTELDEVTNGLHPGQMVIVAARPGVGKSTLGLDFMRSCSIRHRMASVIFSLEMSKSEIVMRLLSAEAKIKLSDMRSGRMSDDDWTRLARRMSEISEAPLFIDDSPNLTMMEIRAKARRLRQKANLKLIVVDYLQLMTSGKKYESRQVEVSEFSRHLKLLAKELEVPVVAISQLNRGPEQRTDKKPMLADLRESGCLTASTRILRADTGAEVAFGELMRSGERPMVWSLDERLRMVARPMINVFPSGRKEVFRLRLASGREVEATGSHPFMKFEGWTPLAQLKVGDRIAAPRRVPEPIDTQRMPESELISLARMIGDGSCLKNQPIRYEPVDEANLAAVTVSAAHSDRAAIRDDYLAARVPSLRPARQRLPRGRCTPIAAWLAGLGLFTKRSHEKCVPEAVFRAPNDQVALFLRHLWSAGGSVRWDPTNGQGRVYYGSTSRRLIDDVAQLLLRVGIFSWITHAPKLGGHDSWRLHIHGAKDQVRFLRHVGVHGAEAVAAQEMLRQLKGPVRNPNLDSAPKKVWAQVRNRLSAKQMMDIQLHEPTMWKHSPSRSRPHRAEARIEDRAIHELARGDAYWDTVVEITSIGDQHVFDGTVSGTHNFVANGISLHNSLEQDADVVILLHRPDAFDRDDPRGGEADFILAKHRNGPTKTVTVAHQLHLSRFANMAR
The assay can be described thus: DnaB intein splicing inhibitors, dose response, biochemical, cell-free fluorescence (AID 449749). The format is functional.

The target in assay [17] is T5, Apoptotic protease-activating factor 1 (Homo sapiens, UniProt O14727).
T5 sequence (O14727 whole entry): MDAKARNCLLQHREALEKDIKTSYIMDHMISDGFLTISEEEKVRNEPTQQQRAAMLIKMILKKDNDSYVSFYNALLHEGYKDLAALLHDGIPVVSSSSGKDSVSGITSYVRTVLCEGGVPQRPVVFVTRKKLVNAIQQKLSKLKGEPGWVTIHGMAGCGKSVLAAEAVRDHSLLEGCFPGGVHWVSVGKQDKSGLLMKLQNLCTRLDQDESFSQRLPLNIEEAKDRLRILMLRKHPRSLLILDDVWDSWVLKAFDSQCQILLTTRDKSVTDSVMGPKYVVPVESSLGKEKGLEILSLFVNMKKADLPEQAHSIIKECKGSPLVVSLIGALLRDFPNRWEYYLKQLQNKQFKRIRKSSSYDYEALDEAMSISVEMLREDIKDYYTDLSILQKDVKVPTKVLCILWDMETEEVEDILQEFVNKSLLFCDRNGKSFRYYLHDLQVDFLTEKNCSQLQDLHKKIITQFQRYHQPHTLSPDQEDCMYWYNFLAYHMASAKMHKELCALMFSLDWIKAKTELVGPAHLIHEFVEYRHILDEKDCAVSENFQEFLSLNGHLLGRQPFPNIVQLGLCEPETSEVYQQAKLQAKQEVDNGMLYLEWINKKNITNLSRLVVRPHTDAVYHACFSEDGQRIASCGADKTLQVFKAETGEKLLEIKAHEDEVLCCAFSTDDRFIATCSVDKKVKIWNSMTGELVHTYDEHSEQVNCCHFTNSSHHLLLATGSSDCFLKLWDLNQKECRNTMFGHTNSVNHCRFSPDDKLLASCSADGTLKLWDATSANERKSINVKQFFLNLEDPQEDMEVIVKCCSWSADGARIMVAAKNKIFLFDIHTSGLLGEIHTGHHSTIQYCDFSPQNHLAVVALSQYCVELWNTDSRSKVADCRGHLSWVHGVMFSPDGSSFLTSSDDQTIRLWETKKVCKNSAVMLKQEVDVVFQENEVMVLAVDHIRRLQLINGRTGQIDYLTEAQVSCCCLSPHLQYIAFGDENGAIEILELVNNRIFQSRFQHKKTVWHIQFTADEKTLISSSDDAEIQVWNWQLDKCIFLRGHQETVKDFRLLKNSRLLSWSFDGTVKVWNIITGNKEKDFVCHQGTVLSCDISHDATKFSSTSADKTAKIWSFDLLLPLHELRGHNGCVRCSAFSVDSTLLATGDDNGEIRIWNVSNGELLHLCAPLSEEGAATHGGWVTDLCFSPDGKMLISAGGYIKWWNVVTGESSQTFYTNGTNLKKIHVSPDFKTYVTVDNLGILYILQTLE
In kind it is functional.

The next assay deals with T6, Protein RecA (Mycobacterium tuberculosis, UniProt P9WHJ3).
T6 sequence (P9WHJ3 whole entry): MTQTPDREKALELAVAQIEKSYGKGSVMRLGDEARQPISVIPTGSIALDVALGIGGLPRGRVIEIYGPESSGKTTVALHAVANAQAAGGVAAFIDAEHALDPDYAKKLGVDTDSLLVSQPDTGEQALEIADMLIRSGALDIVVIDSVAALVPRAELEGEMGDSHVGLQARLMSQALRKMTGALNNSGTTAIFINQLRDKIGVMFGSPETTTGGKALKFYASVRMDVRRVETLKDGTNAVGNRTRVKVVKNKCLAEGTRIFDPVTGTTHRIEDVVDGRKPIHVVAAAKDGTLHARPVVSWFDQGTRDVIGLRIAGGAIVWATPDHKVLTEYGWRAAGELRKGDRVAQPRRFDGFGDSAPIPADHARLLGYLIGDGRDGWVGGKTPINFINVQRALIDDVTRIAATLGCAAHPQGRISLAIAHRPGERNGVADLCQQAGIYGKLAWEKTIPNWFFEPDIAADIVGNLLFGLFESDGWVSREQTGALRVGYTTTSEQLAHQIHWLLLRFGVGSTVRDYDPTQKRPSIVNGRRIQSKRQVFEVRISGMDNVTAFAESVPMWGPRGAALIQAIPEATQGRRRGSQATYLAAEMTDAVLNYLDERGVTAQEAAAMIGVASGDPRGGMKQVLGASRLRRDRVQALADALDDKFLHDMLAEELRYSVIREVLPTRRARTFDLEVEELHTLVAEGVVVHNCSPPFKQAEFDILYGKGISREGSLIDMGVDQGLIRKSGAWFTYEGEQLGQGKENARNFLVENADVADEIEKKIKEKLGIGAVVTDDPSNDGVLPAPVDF
The assay can be described thus: Fluorescence Cell-Free Homogeneous Dose Retest to Identify Inhibitors of RecA-Intein Splicing Activity. [Related pubchem assays (depositor defined):AID2097, AID2223, AID489010, AID492950]. In kind it is functional.

The test system of the next assay is INS1. The assay can be described thus: INS-1E survival protection against cytokine death – cell-based, luminescence, retest, dose response (AID 449756).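 Further: cell death triggered by IL-1 beta plus TNF-alpha plus IFN-gamma mixture; protective hits raise ATP signal compared with cytokine alone wells.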 In kind it is functional. The conditions noted are these: Rattus norvegicus.
Assay [18] is described as follows: bead-based luminescence quenchers, dual-tagged ARNT – biochemical, AlphaScreen, cherry-pick, artefact control for ARNT-TACC3 interaction inhibitor project, dose response (AID 651705).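 Further: AlphaScreen bead proximity signal that flags compounds interfering with the detection technology; potency reflects signal decrease which marks the compound as an assay artifact.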 The format is functional. A general note: Alpha assays give light when donor and acceptor beads are brought close together.

T2 sequence (Q9P0U3 whole entry, the tested form may be a part): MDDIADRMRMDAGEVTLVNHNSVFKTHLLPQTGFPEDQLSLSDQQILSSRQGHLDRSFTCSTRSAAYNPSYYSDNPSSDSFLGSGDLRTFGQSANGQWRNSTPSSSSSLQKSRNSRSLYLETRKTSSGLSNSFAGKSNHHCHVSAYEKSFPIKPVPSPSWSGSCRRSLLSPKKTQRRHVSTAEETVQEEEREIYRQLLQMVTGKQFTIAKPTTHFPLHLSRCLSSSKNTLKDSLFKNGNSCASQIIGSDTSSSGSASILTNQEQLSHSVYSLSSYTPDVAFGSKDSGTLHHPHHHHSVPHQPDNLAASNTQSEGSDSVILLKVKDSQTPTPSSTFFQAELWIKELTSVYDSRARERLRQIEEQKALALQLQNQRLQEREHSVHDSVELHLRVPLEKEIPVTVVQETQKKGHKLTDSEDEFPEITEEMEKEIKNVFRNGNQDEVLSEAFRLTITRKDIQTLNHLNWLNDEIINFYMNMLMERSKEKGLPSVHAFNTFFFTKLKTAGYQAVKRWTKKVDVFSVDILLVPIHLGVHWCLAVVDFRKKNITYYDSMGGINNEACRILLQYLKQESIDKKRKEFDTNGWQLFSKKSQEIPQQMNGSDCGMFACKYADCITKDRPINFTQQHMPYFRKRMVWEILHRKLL
Chain of Steroidogenic factor 1 (Q13285 whole entry): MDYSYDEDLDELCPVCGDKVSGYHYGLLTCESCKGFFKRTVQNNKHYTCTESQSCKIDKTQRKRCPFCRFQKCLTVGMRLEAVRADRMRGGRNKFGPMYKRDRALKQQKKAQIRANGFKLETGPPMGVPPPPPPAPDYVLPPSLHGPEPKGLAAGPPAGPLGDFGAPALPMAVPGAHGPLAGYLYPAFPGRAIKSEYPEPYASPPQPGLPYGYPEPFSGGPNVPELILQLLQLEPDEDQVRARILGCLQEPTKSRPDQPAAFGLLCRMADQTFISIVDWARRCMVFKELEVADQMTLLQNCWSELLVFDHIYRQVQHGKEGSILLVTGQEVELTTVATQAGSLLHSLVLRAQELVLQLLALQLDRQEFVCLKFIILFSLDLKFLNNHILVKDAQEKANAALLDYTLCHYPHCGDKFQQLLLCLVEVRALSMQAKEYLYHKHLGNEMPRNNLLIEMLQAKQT
Chain of Nuclear receptor subfamily 5 group A member 2 (O00482 whole entry): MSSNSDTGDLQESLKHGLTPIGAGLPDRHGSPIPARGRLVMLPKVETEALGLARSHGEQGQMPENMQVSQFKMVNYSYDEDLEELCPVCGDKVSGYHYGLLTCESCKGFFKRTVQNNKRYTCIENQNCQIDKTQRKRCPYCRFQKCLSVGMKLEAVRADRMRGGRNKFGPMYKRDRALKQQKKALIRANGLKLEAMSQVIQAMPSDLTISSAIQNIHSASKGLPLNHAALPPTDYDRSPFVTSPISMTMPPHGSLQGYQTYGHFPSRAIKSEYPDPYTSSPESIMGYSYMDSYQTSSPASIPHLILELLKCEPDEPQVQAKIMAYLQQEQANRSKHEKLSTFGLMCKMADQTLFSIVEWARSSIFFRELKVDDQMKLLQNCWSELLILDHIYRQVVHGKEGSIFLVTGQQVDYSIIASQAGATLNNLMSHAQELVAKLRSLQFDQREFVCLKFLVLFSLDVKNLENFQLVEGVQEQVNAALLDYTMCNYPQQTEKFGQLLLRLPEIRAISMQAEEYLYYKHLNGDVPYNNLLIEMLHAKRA

Turning to `Cn1cnc([N+](=O)[O-])c1S(=O)(=O)Oc1ccc(Cl)cc1`, the IC50 in assay [1] is 4.09 µM (active); in assay [2], 42.8 µM (inactive).

On to `CC1=CC2C(C(O)CC3(C)C2CC(C)C32OCOC23COCO3)C2(C)CC(C=O)=C(O)C=C12` (configuration not stated), for which the AC50 in [3] was 4.34 µM (active). For the same molecule, the IC50 in assay [4] was 11 µM (inactive).

Turning to `COc1ccc(OC)c(NC(=O)c2ccccc2NC(=O)c2ccco2)c1`, the IC50 in assay [5] is 24 µM (inactive); on Steroidogenic factor 1, 11.4 µM (inactive); in assay [6], 35.9 µM (inactive).

As for `O=C1c2cc(CO)cc(O)c2C(=O)c2c(O[C@@H]3OC(CO)[C@@H](O)[C@@H](O)[C@@H]3O)cccc21` (some centres not stated), the IC50 is 22.1 µM (inactive) in [7] and 17.4 µM (active) in assay [8].

For the molecule `COc1ccc(OC)c(Nc2nc(NCCO)c3ccccc3n2)c1`, the EC50 in [9] is 2.1 µM (active); in [10], > 120 µM (not active); in [11], > 30 µM (not active). For the same molecule, the figures for the concentration at half-maximal activity (AC50) in [12] and in assay [13] were 11.6 µM (active) and 4.32 µM (active), respectively.

`CCOC(=O)N1C(=O)[C@@](CC)(c2cccc(C)c2)N1C(=O)OCC`: the IC50 in [14] was 0.06 µM (active).

With `Cc1[nH]n(-c2ccccc2)c(=O)c1/C=N\NC(=O)C1COc2ccccc2O1` (configuration not stated), the results for the EC50 (in assay [15]; with Streptococcus; at Protein RecA) were 1.36 µM (active), 8.94 µM (active) and 17.5 µM (active), respectively. Further, the concentration at half-maximal activity (AC50) in [16] was 40.9 µM (active); in the assay on INS1, 5.03 µM (active); in assay [18], 104 µM (active). In addition, the IC50 in assay [17] is 8.83 µM (active).
